System: NCI-H1417 complex spheroids, growth % test/control
Assay: Anticancer human tumor NCI-H1417 cell line growth inhibition [Asc];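 also: spheroids exposed to compounds for 7 days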;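 as to viability, T/C: 100% = DMSO vehicle control wells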
Settings: for IC50: curve of first compound; for viability, T/C: stronger effect = lower value; active = viability on the fitted dose curve at most 10% of control; inactive = the rest
Protocol: Multicellular complex tumor spheroid response to apoptosis pathway targeting inhibitors Alrizomadlin, Pelcitoclax, and Dasminapant in combination with a variety of drugs and investigational agents in selected tumor cell lines
The MDM2 inhibitor alrizomadlin, the Bcl-2/Bcl-xL inhibitor pelcitoclax, and the IAPs inhibitor dasminapant were evaluated both individually and in combination with standard of care and investigational anticancer small molecules within a complex spheroid model of solid tumors. . Complex spheroids include a stromal component modeled by human endothelial cells (HUVEC) and fibroblasts modeled by human mesenchymal stem cells (MSCs). The concentration ranges selected for each drug and investigational agent were based upon clinically achievable concentrations if the clinical Cmax of the agent was known.
Compounds. The drugs and investigational agents: alrizomadlin (APG-115; NSC831270), pelcitoclax (APG-1252; NSC835773), dasminapant (APG-1387;NSC834197), TAK-243 (NSC785004), copanlisib (NSC809693), olaparib (NSC753686), talazoparib (NSC767125), cobimetinib (NSC 768068), eltanexor (KPT-8602, NSC 794443), abemaciclib (NSC 768073), sotorasib (NSC818433), adagrasib (NSC 831453), MRTX-1133 (NSC 836407), Iadademestat (ORY1001, NSC 806812), and RMC-4630 (NSC839698), were obtained from the NCI Developmental Therapeutics Program Chemical Repository. The FDA-approved anticancer drug set is available from the Developmental Therapeutics Program at https://dtp.cancer.gov/organization/dscb/obtaining/available plates.htm. […] The stock solutions were prepared in dimethyl sulfoxide (DMSO, Sigma-Aldrich, St. Louis, MO, cat. D2650) at 800-fold the tested concentration and stored at -70 degrees C prior to their use. All drugs and investigational agents were tested over a range starting from a high concentration at or near the clinical Cmax and decreasing in half-log increments. If the clinical Cmax for an agent had not been determined, the highest concentration tested was 10 microM.
The patient-derived cancer (PDC) cell lines include five colon adenocarcinomas: 186277-243-T-J2-PDC, 616215-338-R-J1-PDC, 439559-082-T-J2-PDC, 463943-066-T-J2-PDC, and 519858-162-T-J1-PDC; three pancreatic carcinomas: 323965-272-R-J2-PDC, 521955-158-R6-J3-PDC, and 521955-158-R2-J5-PDC; two uterine sarcomas: 327498-152-R-J2-PDC and 993429-296-R-J1-PDC; two rhabdomyosarcomas: 755483-174-R-J1-PDC and 772245-204-R-J1-PDC; two soft tissue sarcomas: 126254-015-R-J1-PDC and 494315-158-R-J1-PDC; two malignant fibrous histiocytomas: 317291-083-R-J1-PDC and 596521-263-R-J1-PDC; two breast carcinomas: 171881-019-R-J1-PDC and 885512-296-R-J2-PDC; and one ovarian carcinoma: 6556581-035-R-J-PDC were obtained from the NCI PDMR, (https://pdmr.cancer.gov). The established cell lines HSSY-2 synovial sarcoma (RRID:CVCL 8719), SYO-1 synovial sarcoma (RRID:CVCL_7146), MPNST malignant peripheral neural sheath tumor were obtained from the Sloan Kettering Institute. The following established cell lines were purchased from the American Type Culture Collection (ATCC, Manassas, VA), Sor the received from the NCI repository:, PANC-1 pancreatic carcinoma (CRL-1469, RRID:CVCL_0480), OVCAR-5 ovarian carcinoma (RRID:CVCL_1628), OVCAR-8 ovarian carcinoma (RRID:CVCL_1629), , MCF-7 breast carcinoma (CRL-12584, RRID:CVCL_0031), MDA-MB-231 breast carcinoma (CRL-12532, RRID:CVCL_0062), NCI-H1876 small cell lung carcinoma (CRL-5902, RRID:CVCL_1503), NCI-H510A small cell lung carcinoma (HTB-184, RRID:CVCL_1565), NCI-H1417 (CRL-5869, RRID:CVCL_1469), and NCI-H196 small cell lung carcinoma (CRL-5823, RRID:CVCL_1509). Dr. Peter Houghton (Greehey Children's Cancer Research Institute, University of Texas Health Science Center, San Antonio, TX) provided Rh-18 rhabdomyosarcoma (RRID:CVCL_1659). Pooled donor human umbilical vein endothelial cells (HUVEC, Lonza, cat. CC-2519) and human mesenchymal stem cells (hMSC, Lonza, cat. PT-2501) were purchased from Lonza (Walkersville, MD).
Cell Culture. […]

[1] = second compound 0.1 µM, first compound 0.00316 µM
[2] = second compound 0.1 µM, first compound 0.01 µM
[3] = second compound 0.1 µM, first compound 0.0316 µM
[4] = second compound 0.1 µM, first compound 0.1 µM
[5] = second compound 0.1 µM, first compound 0.316 µM
[6] = second compound 0.1 µM, first compound 1 µM
[7] = second compound 0.316 µM, first compound 0.00316 µM
[8] = second compound 0.316 µM, first compound 0.01 µM
[9] = second compound 0.316 µM, first compound 0.0316 µM
[10] = second compound 0.316 µM, first compound 0.1 µM
[11] = second compound 0.316 µM, first compound 0.316 µM
[12] = second compound 0.316 µM, first compound 1 µM
[13] = second compound 1 µM, first compound 0.00316 µM
[14] = second compound 1 µM, first compound 0.01 µM
[15] = second compound 1 µM, first compound 0.0316 µM
[16] = second compound 1 µM, first compound 0.1 µM
[17] = second compound 1 µM, first compound 0.316 µM
[18] = second compound 1 µM, first compound 1 µM
[19] = second compound 3.16 µM, first compound 0.00316 µM
[20] = second compound 3.16 µM, first compound 0.01 µM
[21] = second compound 3.16 µM, first compound 0.0316 µM
[22] = second compound 3.16 µM, first compound 0.1 µM
[23] = second compound 3.16 µM, first compound 0.316 µM
[24] = second compound 3.16 µM, first compound 1 µM
[25] = second compound 10 µM, first compound 0.00316 µM
[26] = second compound 10 µM, first compound 0.01 µM
[27] = second compound 10 µM, first compound 0.0316 µM
[28] = second compound 10 µM, first compound 0.1 µM
[29] = second compound 10 µM, first compound 0.316 µM
[30] = second compound 10 µM, first compound 1 µM

CCN1C(C(=O)NC23CCC(C(=O)O)(CC2)CC3)C(c2cccc(Cl)c2F)C2(C(=O)Nc3cc(Cl)ccc32)C12CCCCC2 (stereo not given) + Cc1c(S(C)(=O)=O)c(-c2cc(F)cc(N3CCN(c4ccc(NS(=O)(=O)c5ccc(NC(CCN6CCC(C(=O)OCCCP(=O)(O)O)CC6)CSc6ccccc6)c(S(=O)(=O)C(F)(F)F)c5)cc4)CC3)c2)c(-c2ccc(Cl)cc2)n1C(C)C
< 9.49 nM: IC50 (second compound 0.316 µM) | IC50 (second compound 1 µM) | IC50 (second compound 3.16 µM) | IC50 (second compound 10 µM)
active: viability, T/C (second compound 0.316 µM, first compound 0.949 µM) 11.8% | viability, T/C (second compound 0.316 µM, first compound 3 µM) 1.6% | viability, T/C (second compound 1 µM, first compound 0.03 µM) 6.74% | viability, T/C (second compound 1 µM, first compound 0.0949 µM) 4.76% | viability, T/C (second compound 1 µM, first compound 0.3 µM) 2.15% | viability, T/C (second compound 1 µM, first compound 0.949 µM) 1.25% | viability, T/C (second compound 1 µM, first compound 3 µM) 0.65% | viability, T/C (second compound 3.16 µM, first compound 0.00949 µM) 2.36% | viability, T/C (second compound 3.16 µM, first compound 0.03 µM) 2.41% | viability, T/C (second compound 3.16 µM, first compound 0.0949 µM) 1.59% | viability, T/C (second compound 3.16 µM, first compound 0.3 µM) 1.03% | viability, T/C (second compound 3.16 µM, first compound 0.949 µM) 0.63% | viability, T/C (second compound 3.16 µM, first compound 3 µM) 0.39% | viability, T/C (second compound 10 µM, first compound 0.00949 µM) 1.88% | viability, T/C (second compound 10 µM, first compound 0.03 µM) 2.25% | viability, T/C (second compound 10 µM, first compound 0.0949 µM) 2.08% | viability, T/C (second compound 10 µM, first compound 0.3 µM) 1.02% | viability, T/C (second compound 10 µM, first compound 0.949 µM) 0.65% | viability, T/C (second compound 10 µM, first compound 3 µM) 0.29%
inactive: viability, T/C (second compound 0.1 µM, first compound 0.00949 µM) 78.9% | viability, T/C (second compound 0.1 µM, first compound 0.03 µM) 81.2% | viability, T/C (second compound 0.1 µM, first compound 0.0949 µM) 67.5% | viability, T/C (second compound 0.1 µM, first compound 0.3 µM) 58.7% | viability, T/C (second compound 0.1 µM, first compound 0.949 µM) 44.9% | viability, T/C (second compound 0.1 µM, first compound 3 µM) 16.4% | viability, T/C (second compound 0.316 µM, first compound 0.00949 µM) 35.7% | viability, T/C (second compound 0.316 µM, first compound 0.03 µM) 33.3% | viability, T/C (second compound 0.316 µM, first compound 0.0949 µM) 22.1% | viability, T/C (second compound 0.316 µM, first compound 0.3 µM) 16.4% | viability, T/C (second compound 1 µM, first compound 0.00949 µM) 11.4%
584 nM: IC50 (second compound 0.1 µM)

COc1c(OCCCN2CCOCC2)ccc2c3n(c(=NC(=O)c4cnc(N)nc4)nc12)CCN3 + Cc1c(S(C)(=O)=O)c(-c2cc(F)cc(N3CCN(c4ccc(NS(=O)(=O)c5ccc(NC(CCN6CCC(C(=O)OCCCP(=O)(O)O)CC6)CSc6ccccc6)c(S(=O)(=O)C(F)(F)F)c5)cc4)CC3)c2)c(-c2ccc(Cl)cc2)n1C(C)C
87.7 nM: IC50 (second compound 0.1 µM)
< 3.16 nM: IC50 (second compound 0.316 µM) | IC50 (second compound 1 µM) | IC50 (second compound 3.16 µM) | IC50 (second compound 10 µM)
active: viability, T/C [11] 10.1% | viability, T/C [12] 3.24% | viability, T/C [15] 8.47% | viability, T/C [16] 2.77% | viability, T/C [17] 1.93% | viability, T/C [18] 0.85% | viability, T/C [19] 2.73% | viability, T/C [20] 2.65% | viability, T/C [21] 1.29% | viability, T/C [22] 0.44% | viability, T/C [23] 0.22% | viability, T/C [24] 0.21% | viability, T/C [25] 2.03% | viability, T/C [26] 1.93% | viability, T/C [27] 1.06% | viability, T/C [28] 0.31% | viability, T/C [29] 0.21% | viability, T/C [30] 0.23%
inactive: viability, T/C [1] 79.6% | viability, T/C [2] 80.2% | viability, T/C [3] 60.5% | viability, T/C [4] 45.7% | viability, T/C [5] 34.8% | viability, T/C [6] 14.1% | viability, T/C [7] 46.7% | viability, T/C [8] 43% | viability, T/C [9] 24.1% | viability, T/C [10] 12.7% | viability, T/C [13] 14.9% | viability, T/C [14] 9.99%

CNC(C)C(=O)NC1CN(S(=O)(=O)c2cccc(S(=O)(=O)N3CCC4CCC(C(=O)NC(c5ccccc5)c5ccccc5)N4C(=O)C(NC(=O)C(C)NC)C3)c2)CCC2CCC(C(=O)NC(c3ccccc3)c3ccccc3)N2C1=O (stereo not given) + Cc1c(S(C)(=O)=O)c(-c2cc(F)cc(N3CCN(c4ccc(NS(=O)(=O)c5ccc(NC(CCN6CCC(C(=O)OCCCP(=O)(O)O)CC6)CSc6ccccc6)c(S(=O)(=O)C(F)(F)F)c5)cc4)CC3)c2)c(-c2ccc(Cl)cc2)n1C(C)C
> 1000 nM: IC50 (second compound 0.1 µM)
active: viability, T/C [15] 9.05% | viability, T/C [16] 8.75% | viability, T/C [17] 4.64% | viability, T/C [18] 4.71% | viability, T/C [19] 3.82% | viability, T/C [20] 2.79% | viability, T/C [21] 2.43% | viability, T/C [22] 2.42% | viability, T/C [23] 2.07% | viability, T/C [24] 1.84% | viability, T/C [25] 2.6% | viability, T/C [26] 1.96% | viability, T/C [27] 3.22% | viability, T/C [28] 1.45% | viability, T/C [29] 1.71% | viability, T/C [30] 1.47%
inactive: viability, T/C [1] 94.1% | viability, T/C [2] 95.3% | viability, T/C [3] 80.2% | viability, T/C [4] 74.7% | viability, T/C [5] 84.6% | viability, T/C [6] 81.1% | viability, T/C [7] 42.4% | viability, T/C [8] 47.4% | viability, T/C [9] 47.6% | viability, T/C [10] 36.8% | viability, T/C [11] 38% | viability, T/C [12] 39.3% | viability, T/C [13] 12.2% | viability, T/C [14] 10.3%
< 3.16 nM: IC50 (second compound 0.316 µM) | IC50 (second compound 1 µM) | IC50 (second compound 3.16 µM) | IC50 (second compound 10 µM)
